Test system: Metabolism protein genes
Experiment: DNA chip mRNA expression in yeast, metabolism protein genes (Table 7)
Type: cell-based, Saccharomyces cerevisiae S288C
Outline: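 Untreated cultures served as reference for log-phase S288C yeast given a growth-inhibiting, non-lethal toxicant dose for 2 h at 25° C. in YPD. Gene expression was measured on a whole-genome DNA chip from Cy3/Cy5-labeled cDNA.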

## [Cl][Pb][Cl] [(4), PbCl2]
Yeast gene YAL012W
  The level of expressed mRNA in the presence of chemical substance/The level of expressed mRNA in the absence of chemical substance: 0.8
Yeast gene YAL038W
  The level of expressed mRNA in the presence of chemical substance/The level of expressed mRNA in the absence of chemical substance: 1.4
Yeast gene YBR003W
  level of expressed mRNA in the presence/in the absence of chemical substance: 1.9
Yeast gene YBR011C
  level of expressed mRNA in the presence/in the absence of chemical substance: 1.1
Yeast gene YBR020W
  level of expressed mRNA in the presence/in the absence of chemical substance: 1.9
Yeast gene YBR023C
  The level of expressed mRNA in the presence of chemical substance/The level of expressed mRNA in the absence of chemical substance: 1.1
Yeast gene YBR029C
  The level of expressed mRNA in the presence of chemical substance/The level of expressed mRNA in the absence of chemical substance: 1.0
Yeast gene YBR183W
  The level of expressed mRNA in the presence of chemical substance/The level of expressed mRNA in the absence of chemical substance: 2.9
Yeast gene YBR222C
  The level of expressed mRNA in the presence of chemical substance/The level of expressed mRNA in the absence of chemical substance: 0.8
Yeast gene YBR256C
  The level of expressed mRNA in the presence of chemical substance/The level of expressed mRNA in the absence of chemical substance: 1.3
Yeast gene YCL009C
  The level of expressed mRNA in the presence of chemical substance/The level of expressed mRNA in the absence of chemical substance: 0.5
Yeast gene YCL064C
  The level of expressed mRNA in the presence of chemical substance/The level of expressed mRNA in the absence of chemical substance: 0.8
Yeast gene YCR010C
  level of expressed mRNA in the presence/in the absence of chemical substance: 4.2
Yeast gene YCR034W
  level of expressed mRNA in the presence/in the absence of chemical substance: 0.9
Yeast gene YCR048W
  The level of expressed mRNA in the presence of chemical substance/The level of expressed mRNA in the absence of chemical substance: 0.6
Yeast gene YCR098C
  The level of expressed mRNA in the presence of chemical substance/The level of expressed mRNA in the absence of chemical substance: 2.0
Yeast gene YDR019C
  The level of expressed mRNA in the presence of chemical substance/The level of expressed mRNA in the absence of chemical substance: 4.0
Yeast gene YDR050C
  level of expressed mRNA in the presence/in the absence of chemical substance: 1.8
Yeast gene YDR073W
  level of expressed mRNA in the presence/in the absence of chemical substance: 1.4
Yeast gene YDR123C
  level of expressed mRNA in the presence/in the absence of chemical substance: 2.1
Yeast gene YDR178W
  level of expressed mRNA in the presence/in the absence of chemical substance: 2.2
Yeast gene YDR277C
  level of expressed mRNA in the presence/in the absence of chemical substance: 3.0
Yeast gene YDR284C
  level of expressed mRNA in the presence/in the absence of chemical substance: 2.9
Yeast gene YDR345C
  level of expressed mRNA in the presence/in the absence of chemical substance: 2.6
Yeast gene YDR380W
  The level of expressed mRNA in the presence of chemical substance/The level of expressed mRNA in the absence of chemical substance: 1.7
Yeast gene YDR400W
  level of expressed mRNA in the presence/in the absence of chemical substance: 0.7
Yeast gene YDR408C
  level of expressed mRNA in the presence/in the absence of chemical substance: 4.1
Yeast gene YDR483W
  level of expressed mRNA in the presence/in the absence of chemical substance: 2.0
Yeast gene YDR497C
  The level of expressed mRNA in the presence of chemical substance/The level of expressed mRNA in the absence of chemical substance: 1.3
Yeast gene YDR502C
  The level of expressed mRNA in the presence of chemical substance/The level of expressed mRNA in the absence of chemical substance: 1.2
Yeast gene YDR516C
  The level of expressed mRNA in the presence of chemical substance/The level of expressed mRNA in the absence of chemical substance: 2.1
Yeast gene YEL063C
  level of expressed mRNA in the presence/in the absence of chemical substance: 1.3
Yeast gene YER015W
  level of expressed mRNA in the presence/in the absence of chemical substance: 1.5
Yeast gene YER026C
  The level of expressed mRNA in the presence of chemical substance/The level of expressed mRNA in the absence of chemical substance: 1.0
Yeast gene YER053C
  The level of expressed mRNA in the presence of chemical substance/The level of expressed mRNA in the absence of chemical substance: 1.7
Yeast gene YER069W
  The level of expressed mRNA in the presence of chemical substance/The level of expressed mRNA in the absence of chemical substance: 1.4
Yeast gene YER081W
  level of expressed mRNA in the presence/in the absence of chemical substance: 1.4
Yeast gene YER096W
  The level of expressed mRNA in the presence of chemical substance/The level of expressed mRNA in the absence of chemical substance: 2.0
Yeast gene YER120W
  level of expressed mRNA in the presence/in the absence of chemical substance: 0.8
Yeast gene YER178W
  The level of expressed mRNA in the presence of chemical substance/The level of expressed mRNA in the absence of chemical substance: 1.0
Yeast gene YFL011W
  level of expressed mRNA in the presence/in the absence of chemical substance: 3.3
Yeast gene YFL014W
  The level of expressed mRNA in the presence of chemical substance/The level of expressed mRNA in the absence of chemical substance: 11.0
Yeast gene YFL030W
  The level of expressed mRNA in the presence of chemical substance/The level of expressed mRNA in the absence of chemical substance: 2.0
Yeast gene YFL031W
  The level of expressed mRNA in the presence of chemical substance/The level of expressed mRNA in the absence of chemical substance: 0.7
Yeast gene YFL056C
  The level of expressed mRNA in the presence of chemical substance/The level of expressed mRNA in the absence of chemical substance: 1.5
Yeast gene YFL057C
  The level of expressed mRNA in the presence of chemical substance/The level of expressed mRNA in the absence of chemical substance: 1.8
Yeast gene YFR047C
  The level of expressed mRNA in the presence of chemical substance/The level of expressed mRNA in the absence of chemical substance: 2.6
Yeast gene YGL012W
  level of expressed mRNA in the presence/in the absence of chemical substance: 1.2
Yeast gene YGL022W
  The level of expressed mRNA in the presence of chemical substance/The level of expressed mRNA in the absence of chemical substance: 0.3
Yeast gene YGL115W
  level of expressed mRNA in the presence/in the absence of chemical substance: 2.0
Yeast gene YGL126W
  The level of expressed mRNA in the presence of chemical substance/The level of expressed mRNA in the absence of chemical substance: 0.8
Yeast gene YGL205W
  level of expressed mRNA in the presence/in the absence of chemical substance: 0.8
Yeast gene YGL209W
  The level of expressed mRNA in the presence of chemical substance/The level of expressed mRNA in the absence of chemical substance: 2.6
Yeast gene YGL248W
  The level of expressed mRNA in the presence of chemical substance/The level of expressed mRNA in the absence of chemical substance: 0.7
Yeast gene YGR037C
  The level of expressed mRNA in the presence of chemical substance/The level of expressed mRNA in the absence of chemical substance: 0.8
Yeast gene YGR055W
  The level of expressed mRNA in the presence of chemical substance/The level of expressed mRNA in the absence of chemical substance: 0.7
Yeast gene YGR096W
  level of expressed mRNA in the presence/in the absence of chemical substance: 4.6
Yeast gene YGR191W
  level of expressed mRNA in the presence/in the absence of chemical substance: 1.5
Yeast gene YGR194C
  The level of expressed mRNA in the presence of chemical substance/The level of expressed mRNA in the absence of chemical substance: 2.1
Yeast gene YGR204W
  level of expressed mRNA in the presence/in the absence of chemical substance: 1.3
Yeast gene YGR256W
  The level of expressed mRNA in the presence of chemical substance/The level of expressed mRNA in the absence of chemical substance: 0.8
Yeast gene YGR282C
  The level of expressed mRNA in the presence of chemical substance/The level of expressed mRNA in the absence of chemical substance: 1.9
Yeast gene YGR288W
  level of expressed mRNA in the presence/in the absence of chemical substance: 2.6
Yeast gene YHR025W
  level of expressed mRNA in the presence/in the absence of chemical substance: 0.6
Yeast gene YHR111W
  The level of expressed mRNA in the presence of chemical substance/The level of expressed mRNA in the absence of chemical substance: 1.9
Yeast gene YHR123W
  level of expressed mRNA in the presence/in the absence of chemical substance: 1.0
Yeast gene YHR137W
  The level of expressed mRNA in the presence of chemical substance/The level of expressed mRNA in the absence of chemical substance: 1.7
Yeast gene YHR174W
  The level of expressed mRNA in the presence of chemical substance/The level of expressed mRNA in the absence of chemical substance: 1.2
Yeast gene YHR176W
  The level of expressed mRNA in the presence of chemical substance/The level of expressed mRNA in the absence of chemical substance: 1.4
Yeast gene YHR210C
  level of expressed mRNA in the presence/in the absence of chemical substance: 5.2
Yeast gene YIL006W
  level of expressed mRNA in the presence/in the absence of chemical substance: 2.9
Yeast gene YIL045W
  The level of expressed mRNA in the presence of chemical substance/The level of expressed mRNA in the absence of chemical substance: 2.2
Yeast gene YIL107C
  The level of expressed mRNA in the presence of chemical substance/The level of expressed mRNA in the absence of chemical substance: 1.5
Yeast gene YIL154C
  The level of expressed mRNA in the presence of chemical substance/The level of expressed mRNA in the absence of chemical substance: 0.8
Yeast gene YIL155C
  The level of expressed mRNA in the presence of chemical substance/The level of expressed mRNA in the absence of chemical substance: 3.7
Yeast gene YIR034C
  The level of expressed mRNA in the presence of chemical substance/The level of expressed mRNA in the absence of chemical substance: 0.6
Yeast gene YIR036C
  The level of expressed mRNA in the presence of chemical substance/The level of expressed mRNA in the absence of chemical substance: 1.8
Yeast gene YJL031C
  The level of expressed mRNA in the presence of chemical substance/The level of expressed mRNA in the absence of chemical substance: 1.3
Yeast gene YJL068C
  The level of expressed mRNA in the presence of chemical substance/The level of expressed mRNA in the absence of chemical substance: 1.6
Yeast gene YJL088W
  The level of expressed mRNA in the presence of chemical substance/The level of expressed mRNA in the absence of chemical substance: 0.5
Yeast gene YJL099W
  The level of expressed mRNA in the presence of chemical substance/The level of expressed mRNA in the absence of chemical substance: 1.3
Yeast gene YJL121C
  level of expressed mRNA in the presence/in the absence of chemical substance: 0.8
Yeast gene YJL167W
  level of expressed mRNA in the presence/in the absence of chemical substance: 1.1
Yeast gene YJL172W
  The level of expressed mRNA in the presence of chemical substance/The level of expressed mRNA in the absence of chemical substance: 1.5
Yeast gene YJL216C
  level of expressed mRNA in the presence/in the absence of chemical substance: 0.9
Yeast gene YJL219W
  The level of expressed mRNA in the presence of chemical substance/The level of expressed mRNA in the absence of chemical substance: 1.6
Yeast gene YJR077C
  level of expressed mRNA in the presence/in the absence of chemical substance: 1.6
Yeast gene YJR137C
  The level of expressed mRNA in the presence of chemical substance/The level of expressed mRNA in the absence of chemical substance: 0.8
Yeast gene YJR143C
  level of expressed mRNA in the presence/in the absence of chemical substance: 0.8
Yeast gene YJR148W
  The level of expressed mRNA in the presence of chemical substance/The level of expressed mRNA in the absence of chemical substance: 3.5

From US8192962B2, “Processes for detecting toxic substances” (Daikin Industries, Ltd., priority 2001, dated 2012)
